Structures can show the parent of a compound that is named as a salt.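 Assay format: 96-well plates, 48-hour exposure. Abbreviation: GI50, concentration required for 50% inhibition of growth.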 Calls of active or inactive are those of the source. Cut-off read from the data, not from the text of the source: active = GI50 up to about 1.1 µM and inactive = higher.
Tests used:
Test in all cases: DTP human tumour cell line panel, 48 h
[1] = system: KM12
[2] = system: HOP-18
[3] = system: UO-31
[4] = system: SK-MEL-2
[5] = system: EKVX
[6] = system: OVCAR-4
[7] = system: UACC-62
[8] = system: SF-295
[9] = system: LXFL 529
[10] = system: M14
[11] = system: SW-620
[12] = system: HOP-92
[13] = system: U-251
[14] = system: HT-29
[15] = system: SK-OV-3
[16] = system: HL-60
[17] = system: SR
[18] = system: CAKI-1
[19] = system: PC-3
[20] = system: BT-549

SMILES | GI50 [1] | GI50 [2] | GI50 [3] | GI50 [4] | GI50 [5] | GI50 [6] | GI50 [7] | GI50 [8] | GI50 [9] | GI50 [10] | GI50 [11] | GI50 [12] | GI50 [13] | GI50 [14] | GI50 [15] | GI50 [16] | GI50 [17] | GI50 [18] | GI50 [19] | GI50 [20]
CC1(C)CCCC2(C)C3C(O)CC2(C)C(O)C31 (configuration not stated) | > 100 µM (inactive) | > 100 µM (inactive) | > 100 µM (inactive) | > 100 µM (inactive) | > 100 µM (inactive) | > 100 µM (inactive) | > 100 µM (inactive) | > 100 µM (inactive) | > 100 µM (inactive) | > 100 µM (inactive) | > 100 µM (inactive) | > 10 µM (inactive) | > 100 µM (inactive) | > 100 µM (inactive) | > 100 µM (inactive) |  |  |  |  | 
O=C(Nc1cc(Cl)c(Cl)cc1Cl)C(=O)C(C(=O)c1ccc(Cl)c(Cl)c1)C1OC(=O)c2ccccc21 (configuration not stated) | 16.6 µM (inactive) |  | 16.8 µM (inactive) | 14 µM (inactive) | 19.6 µM (inactive) | 22.9 µM (inactive) | 16.1 µM (inactive) | 11.9 µM (inactive) | 10.9 µM (inactive) | 13.5 µM (inactive) | 15.6 µM (inactive) | 11 µM (inactive) | 15.3 µM (inactive) | 18.5 µM (inactive) | 26.1 µM (inactive) | 18 µM (inactive) | 4.39 µM (inactive) | 16.1 µM (inactive) |  | 
CC(C)(C)C1=Nc2c(Br)cc(C(C)(C)C)cc2C(C(F)(F)F)(C(F)(F)F)O1 | > 100 µM (inactive) |  | 47.2 µM (inactive) | > 100 µM (inactive) | > 100 µM (inactive) | > 100 µM (inactive) | > 100 µM (inactive) | 54.8 µM (inactive) | 46.7 µM (inactive) | > 100 µM (inactive) | 46.7 µM (inactive) |  | 22.9 µM (inactive) | 57.9 µM (inactive) | > 100 µM (inactive) | 22.2 µM (inactive) | 54 µM (inactive) |  |  | 
COc1ccc(NC(=O)CC/C(CC(=O)C(C)(C)C)=N\NC(=O)C(N)=O)cc1 | > 100 µM (inactive) |  | > 100 µM (inactive) | > 100 µM (inactive) | > 100 µM (inactive) | > 100 µM (inactive) | > 100 µM (inactive) | > 100 µM (inactive) | 79.4 µM (inactive) | > 100 µM (inactive) | > 100 µM (inactive) | > 100 µM (inactive) | > 100 µM (inactive) | > 100 µM (inactive) | > 100 µM (inactive) | > 100 µM (inactive) | > 100 µM (inactive) | > 100 µM (inactive) |  | 
N#C/C(=C/c1ccc2c(c1)OCO2)C(=O)c1ccccc1 | > 100 µM (inactive) | > 100 µM (inactive) | > 100 µM (inactive) | > 100 µM (inactive) | > 100 µM (inactive) | > 100 µM (inactive) | > 100 µM (inactive) | > 100 µM (inactive) | > 100 µM (inactive) | > 100 µM (inactive) | > 100 µM (inactive) |  | > 100 µM (inactive) | > 100 µM (inactive) | > 100 µM (inactive) |  |  | > 100 µM (inactive) |  | 
Cc1ccc(S(=O)(=O)N/N=C(/CC(=O)c2c(C)[n+]([O-])c3ccccc3[n+]2[O-])C(=O)Nc2ccc(C)c(C)c2)cc1 | 28.2 µM (inactive) | > 100 µM (inactive) | > 100 µM (inactive) | > 100 µM (inactive) | > 100 µM (inactive) | 33 µM (inactive) | 79.8 µM (inactive) | > 100 µM (inactive) | > 100 µM (inactive) | > 100 µM (inactive) | 33.7 µM (inactive) |  | 28.5 µM (inactive) | 50.9 µM (inactive) | > 100 µM (inactive) |  |  | > 100 µM (inactive) |  | 
O=C1c2ccccc2C2(O)N(c3ccccc3)C(=S)N(c3ccccc3)C12O (configuration not stated) | > 100 µM (inactive) | > 100 µM (inactive) | 92.7 µM (inactive) | > 100 µM (inactive) | > 100 µM (inactive) | > 100 µM (inactive) | > 100 µM (inactive) | > 100 µM (inactive) | > 100 µM (inactive) | > 100 µM (inactive) | > 100 µM (inactive) |  | > 100 µM (inactive) | > 100 µM (inactive) | > 100 µM (inactive) |  |  | > 100 µM (inactive) |  | 
Cc1ccccc1/C=C/C(=O)c1ccccc1 | 23.3 µM (inactive) |  | 21.7 µM (inactive) | > 10 µM (inactive) | 17.5 µM (inactive) | 13.3 µM (inactive) | 19.9 µM (inactive) |  | 21.6 µM (inactive) | 16.1 µM (inactive) | > 10 µM (inactive) | 20.5 µM (inactive) | 16.8 µM (inactive) | 20.1 µM (inactive) | 27.4 µM (inactive) |  | 29 µM (inactive) | 19.4 µM (inactive) |  | 
O=C(CC1C(=O)Nc2ccccc2S1(=O)=O)Nc1ccc(Cl)cc1 (configuration not stated) |  |  | 17.1 µM (inactive) | 21.1 µM (inactive) |  | 22.1 µM (inactive) | 43 µM (inactive) | 45.6 µM (inactive) | 22.9 µM (inactive) | 31 µM (inactive) | 31.3 µM (inactive) | 16.9 µM (inactive) | 16 µM (inactive) | 29.9 µM (inactive) |  | 12.1 µM (inactive) | 4.7 µM (inactive) | 16.5 µM (inactive) |  | 
COC1CC(O)C(OC(=O)c2ccccc2)C(C)O1 (configuration not stated) | > 100 µM (inactive) | > 100 µM (inactive) |  |  |  | > 100 µM (inactive) | > 100 µM (inactive) | > 100 µM (inactive) |  | > 100 µM (inactive) | > 100 µM (inactive) | > 100 µM (inactive) | > 100 µM (inactive) | > 100 µM (inactive) |  | > 100 µM (inactive) | > 100 µM (inactive) | > 100 µM (inactive) |  | 
COc1ccc(-c2cc(=O)c3cc(C)c(C)c(C(=O)O)c3o2)cc1 | > 100 µM (inactive) |  | > 100 µM (inactive) | > 100 µM (inactive) | > 100 µM (inactive) | > 100 µM (inactive) | 13.6 µM (inactive) | > 100 µM (inactive) | > 100 µM (inactive) |  | > 100 µM (inactive) | < 0.01 µM (active) | > 100 µM (inactive) | > 100 µM (inactive) | > 100 µM (inactive) | > 100 µM (inactive) | > 100 µM (inactive) | > 100 µM (inactive) |  | 
CC1(c2cccc(C3CC4(CCC3=O)OCCCCO4)c2)OCCO1 (configuration not stated) | > 100 µM (inactive) | > 100 µM (inactive) | > 100 µM (inactive) | > 100 µM (inactive) |  | > 100 µM (inactive) | > 100 µM (inactive) | > 100 µM (inactive) | > 100 µM (inactive) | > 100 µM (inactive) | > 100 µM (inactive) |  | > 100 µM (inactive) | > 100 µM (inactive) | > 100 µM (inactive) | > 100 µM (inactive) |  | > 100 µM (inactive) |  | 
N[C@H](C(=O)O)[C@H]1ON=C(Cl)[C@@H]1O | 0.612 µM (active) | > 360 µM (inactive) | 18.3 µM (inactive) | 56.1 µM (inactive) | 5.11 µM (inactive) | 29.3 µM (inactive) | 3.3 µM (inactive) | 5.97 µM (inactive) |  | 6.03 µM (inactive) | 2.16 µM (inactive) | 27.4 µM (inactive) | 3.3 µM (inactive) | 0.286 µM (active) | 14.3 µM (inactive) | 3.46 µM (inactive) | 1.73 µM (inactive) | 1.77 µM (inactive) | 7.03 µM (inactive) | 3.97 µM (inactive)
COc1ccc(OC)c2cc(C3(C)SCCCS3)ccc12 | > 100 µM (inactive) | > 100 µM (inactive) | > 100 µM (inactive) | > 100 µM (inactive) | > 100 µM (inactive) | 60.3 µM (inactive) | > 100 µM (inactive) | 78.2 µM (inactive) | > 100 µM (inactive) | 65 µM (inactive) | > 100 µM (inactive) |  | 19.3 µM (inactive) | 40.4 µM (inactive) | > 100 µM (inactive) | 59.3 µM (inactive) |  | 61 µM (inactive) |  | 
COc1ncn(C2C=C(CO)C(O)C2O)c(=O)n1 (configuration not stated) | > 100 µM (inactive) | > 100 µM (inactive) | > 100 µM (inactive) | > 100 µM (inactive) | > 100 µM (inactive) | > 100 µM (inactive) | > 100 µM (inactive) |  | > 100 µM (inactive) | > 100 µM (inactive) | < 0.01 µM (active) |  | > 100 µM (inactive) |  | > 100 µM (inactive) | > 100 µM (inactive) |  | < 0.01 µM (active) |  | 
Nc1ccc([As](=O)(O)O)cc1 [ARSANILIC ACID] | > 100 µM (inactive) |  | > 100 µM (inactive) | > 100 µM (inactive) | > 100 µM (inactive) | > 100 µM (inactive) | > 100 µM (inactive) | > 100 µM (inactive) |  | > 100 µM (inactive) | > 100 µM (inactive) | > 100 µM (inactive) | > 100 µM (inactive) | > 100 µM (inactive) | > 100 µM (inactive) | > 100 µM (inactive) | > 100 µM (inactive) | > 100 µM (inactive) | > 100 µM (inactive) | > 100 µM (inactive)
NCCCCNCCCN [SPERMIDINE TRIHYDROCHLORIDE] | > 100 µM (inactive) |  | > 100 µM (inactive) | > 100 µM (inactive) | > 100 µM (inactive) | 16.7 µM (inactive) | > 100 µM (inactive) | > 100 µM (inactive) |  | > 100 µM (inactive) | > 100 µM (inactive) | > 100 µM (inactive) | > 100 µM (inactive) | > 100 µM (inactive) | > 100 µM (inactive) | > 100 µM (inactive) | > 100 µM (inactive) | 1.71 µM (inactive) | > 100 µM (inactive) | > 100 µM (inactive)
